Tested on: linear viral DNA (circularization)
Assay type: biochemical, HIV-1
Description: The chronically HIV-1 infected Molt IIIB human T cell line (HTLV IIIB virus strain) was the source of virus for cell-free infections. This human T cell line constitutively produces a low level of the HTLV-111B strain of HIV-1. Culture supernatant containing a high concentration of virus was prepared by incubating 300×10^6 Molt IIIB cells in 50 ml fresh RPMI 1640 medium containing 20% fetal calf serum and 10 ng of phorbol 12-myristate 13-acetate per ml for 20-24 hours. […] Cytoplasmic extracts (3 ml) were prepared 4-4.5 hours post-infection, by a modification of the procedure of Brown et al., Cell 49: 342-356 (1987).
At specified times after infection, cells were washed twice with buffer K (20 mM Hepes, pH 7.4, 150 mM KCl, 5 mM MgCl2, 1 mM dithiothreitol, […]) and then lysed at a concentration of 33×10^6 cells per ml in the same buffer containing 0.025% digitonin or 0.025% Triton X-100. Cells were extracted for 10 minutes at room temperature, and the lysate was centrifuged at 1000×g for 3 minutes, and is referred to as "cytoplasmic extract". Cytoplasmic extract was the source of viral DNA for analyses in the assays described below. The pellet from the initial low-speed centrifugation contained cell debris and intact nuclei and is called the "nuclear pellet". Cell extracts from uninfected SupT1 cells were prepared in the same manner.
Viral DNA present in cytoplasmic extracts was deproteinated by incubation with proteinase K (1 mg/ml)/10 mM EDTA/0.5% SDS for 1 hour at 55° C. Samples were extracted successively with phenol/chloroform [1:1 (vol/vol)] and chloroform. DNA was ethanol-precipitated, washed with 70% ethanol, resuspended in 10 mM Tris.HCI (pH 7.4), and treated with RNase A (20 μpg/ml)for 1 hour at […]. before analysis by agarose gel electrophoresis and Southern blotting.
DNA samples were layered on 0.8% agarose gels and electrophoresed at 1 V/cm for 15 hour in Tris/acetate/EDTA buffer. After electrophoresis, DNA was blotted by capillary action onto nitrocellulose (0.45 μm, Schleicher & Schuell).
Cell extracts were prepared from cells four to five hours after infection with HIV-1, using the above-described methods to yield fully functional viral preintegration complexes. […] In all cases, a HIV-1 LTR-containing DNA fragment was used as a hybridization probe. Therefore, only LTR-containing DNA fragments are detected. […] Lane 5: Unintegrated viral DNA prepared by Hirt extraction of SupT1 cells infected 24 hours earlier with concentrated HIV-1. […] Viral DNA was purified from extracts incubated with 1 mM ATP for 15 minutes (lanes 1 and 4), with 1 mM ATP for 45 minutes (lanes 3 and 6), or with 1 mM ATPγS for 45 minutes (lanes 2 and 5). Lanes 1-3: uncut viral DNA; lanes 4-6: viral DNA was cut with SalI prior to electrophorosis. Lane 7: linear viral DNA, prepared from untreated extracts was digested with SalI prior to electrophorosis. Lane 8: unintegrated viral DNA prepared by Hirt extraction of infected cells, as described with respect to FIG. 14, digested with SalI prior to electrophoresis. […] Lanes 1-3. Viral DNA prepared from extracts treated with 1 mM ATP for 15 minutes, 30 minutes and 45 minutes, respectively. Lane 4: Viral DNA prepared from extract treated with 1 mM ATPγS for 45 minutes. Lanes 5-7: products of reactions shown in lanes 1-3, respectively, digested with SalI and PstI prior to electrophoresis. Lane 8: SalI, PstI digestion of viral DNA prepared from extract treated with 1 mM ATP for 90 minutes. Lane 9: SalI, PstI digestion of reaction products shown in lane 4. Lane 10: SalI, PstI digestion of unintegrated viral DNA prepared by Hirt extraction of infected cells.

| SMILES | formation of circular viral DNA species (1 mM, 37° C., 45 min, no target DNA) | 1-LTR circle formation (5 mM ATP) | formation of 2-LTR circles (5 mM ATP) | ATP concentration of peak 1-LTR circle formation (37° C., 45 or 90 min) [mM] | optimal ATP concentration for formation of 2-LTR circles (37° C., 45 or 90 min) [mM] | 1-LTR [ATP] optimum (table) [mM] | Autointegration [ATP] optimum (table) [mM] | induction of 1-LTR circular form (1 mM, 37° C., 45 min) | induction of 2-LTR circles (1 mM, 37° C., 45 min) | 1-LTR circles (restriction analysis) (1 mM, 45 min) | origin of 2-LTR circles (SalI/PstI digestion) (1 mM, 45 min) | simple 2-LTR circles (SalI/PstI digestion) (1 mM, 45 min) | type of circular viral DNA formed (1 mM, 45 min, restriction enzyme analysis) |
| --- | --- | --- | --- | --- | --- | --- | --- | --- | --- | --- | --- | --- | --- |
| Nc1ncnc2c1ncn2[C@@H]1O[C@H](COP(=O)(O)OP(=O)(O)OP(=O)(O)O)[C@@H](O)[C@H]1O [ATP, adenosine triphosphate] | formation of two viral DNA species that migrated more slowly than the linear form of viral DNA | considerable | completely inhibited | 2 | 1 | 2 | 1 |  |  |  |  |  |  |
| Nc1ncnc2c1ncn2[C@@H]1O[C@H](COP(=O)(O)OP(=O)(O)OP(O)(O)=S)[C@@H](O)[C@H]1O [ATPγS] |  |  |  |  |  |  |  | unable to induce detectable amounts of the 1-LTR circular forms | induced the formation of 2-LTR circles | no detectable 1-LTR circles | entirely the products of autointegration | absence of simple 2-LTR circles among the reaction products | exclusively of the 2-LTR type |

Source: patent US5759768A, “Assays for factors affecting circularization of DNA, assays for factors affecting DNA integration, factors, and uses thereof” (priority 1995, dated 1998)
